Read-outs that look alike come from different tables or passages of the source. A value given as a limit tells only on which side of the number the result lay.

The results in this text go back to patent publication US10130677B2, “Antimicrobial peptide and uses thereof” (priority 2013, dated 2018).

For one assay, the system named is S. aureus JAR060131. The assay is classed as cell-based, Staphylococcus aureus. Conditions: for IC99.9: approx. 1 × 10^6 CFU/ml S. aureus JAR, within 2 hrs (Table 2). As to the method: Polypeptides of the invention preferably have an in vitro IC99.9 of at most 150 μM after 2 hours at 37° C. against at least one microbial species in the presence of 50% plasma. Said IC99.9 is preferably determined in accordance with a method for determining the antimicrobial activity as described herein in the Examples. Said method described in the Examples for determining antimicrobial activity of microbes not associated with biofilm involves the mixing of 50 microL of a solution of a polypeptide in PBS with addition of human plasma at a final concentration of 50% and 20 microL of bacterial suspension with 5×10^6 CFU per mL of PBS in a well. After incubation of this mixture for 2 hours at 37° C. under shaking conditions, a sample is used for assessment of the bacterial counts. The lowest peptide concentration at which there is 99.9% of bacteria killed, is called the inhibitory concentration (IC) 99.9. Bacterial counts can be determined by manual CFU counting. For determining antibacterial activity for instance 1×10^6 CFU/ml bacteria are used, for determining antifungal activity for instance 1×10^5 cells/ml are used.
Peptides were incubated with 1×10^6 CFU/ml of a mid-logarithmic culture of S. aureus JAR060131, methicillin resistant S. aureus (MRSA) LUH14616, Staphylococcus epidermidis RP62a, and Pseudomonas aeruginosa PAO1 in PBS without or with addition of pooled human plasma (Sanquin, Amsterdam, the Netherlands) at a final concentration of 50%. Antimicrobial activity is expressed as the 99.9% lethal concentration (LC99.9), i.e., the lowest peptide concentration which killed ≥99.9% of bacteria after 2 hours of incubation at 37° C. under shaking conditions.

In assay [1] the test system is Pseudomonas aeruginosa PAO1. Type of assay: cell-based.
In assay [2] the test system is LTA (S. aureus)-induced IL-8 production. In words: LTA neutralization in whole human blood. The assay is classed as cell-based. To be noted: LTA-induced IL-8; blood from one donor. From the text: The term “anti-inflammatory activity” of a polypeptide as used herein refers to inhibiting, reducing or preventing an inflammatory response in a subject that has been infected by microbes, e.g. bacteria, viruses, fungi, and/or parasites. Anti-inflammatory activity of polypeptides of the invention is achieved by inhibiting, reducing or preventing the release of pro-inflammatory microbial compounds, such as lipoteichoic acid (LTA), peptidoglycan (PG) and/or lipopolysaccharides (LPS). Anti-inflammatory activity can be measured by methods known in the art. Examples of such method are a LPS neutralization assay and a LTA neutralization assay as described in the Examples of this application. In such method, a polypeptide of the invention is mixed with a fixed concentration of LPS or LTA, such as 500 ng/ml LPS or 2 mg/ml LTA, and incubated for 30 min. Thereafter, these mixtures were added to diluted fresh human whole blood and 20 hours thereafter the level of cytokines (e.g. 1L-8 for LTA and 1L-12p40 for LPS) in the blood sample are measured by ELISA.
Peptides were pre-incubated with 500 ng/ml LPS (E. coli 054) or 2 mg/ml LTA (S. aureus, endotoxin-free) or 1×10^9 CFU/ml of UV-killed S. aureus JAR060131 for 30 min at 37° C. Diluted whole human blood was stimulated with the peptide-LPS/LTA/S. aureus mixtures for 20 hours at 37° C. IL-12p40 and IL-8 levels in supernatants were determined using ELISA.

As to “Ac-IGKEFKRIVERIKRFLRELVRPLR-NH2 [OP-145, JIGKEFKRIVERIKRFLRELVRPLRB, reference compound]”, the results for the IC99.9 with S. aureus JAR060131 (50% plasma) and in the assay with S. aureus JAR060131 (PBS) were 204.8 µM and 1.6 µM, respectively. In addition, the LC99.9 in the assay with S. aureus JAR060131 (50% plasma, mid-logarithmic culture, median of at least two experiments (Table 3)) is 204.8 µM; with S. aureus JAR060131 (JAR060131, 2 h), 1.6 µM; in assay [1] (50% plasma, mid-logarithmic culture, median (Table 3)), above 204.8 µM; in assay [1] (PAO1) it was 3.2 µM. Also, in assay [2], the IC50 was 0.781 µM.
